This note sets out measurements from patent publication US8268292B2, “Obovatol having anti-anxiety activity” (Korea Research Institute of Bioscience and Biotechnology, priority 2005, dated 2012).

What all share (assay type): in vivo
In data set [1] the test system is ICR male mice. In words: elevated plus-maze model test. On the procedure: Animals and Drugs: ICR male mice weighing from 20 g to 28 g (5 or 6 weeks) were purchased from Daehan Biolink Co., Ltd. (Korea) and housed for at least 7 days prior to the experiment under 12-h light/dark cycle (lights on at 7:00 am) in a temperature-controlled (22±2° C.) animal facility. Food and water were freely accessible. All mice were maintained in accordance with the National Institute of Toxicological Research on the Korea Food and Drug Administration guideline for the care and use of laboratory animals. Diazepam (ample type) was purchased from Dea-Won Pharmaceutical Co. (South Korea) and was orally administered 30 min prior to the experiment. Obovatol was kindly gifted from Korea Research Institute of Bioscience and Biotechnology and was orally administered 60 min prior to the experiment.
Treatment of Test Sample: obovatol prepared from Example 1 was dissolved in 0.1 ml of ethanol and diluted with 0.1% Tween-80 in order to administrate with an amount of 0.1 ml/10 g per weight of test animal. Various concentrations of test sample (obovatol), i.e., 0.2, 0.5 and 1 mg/kg were orally administrated at 1 hour prior to the experiment and […] of diazepam was peritoneally administrated into animal at 30 mins prior to the experiment.
To determine the anti-anxiety activity after administration of obovatol, elevated plus-maze model test was performed as follow in accordance with procedure cited in the literature (Dawson, G. R. et al., Trends in Pharmacological Sciences, 16, pp. 33-36, 1995).
Elevated plus-maze apparatus consists of two perpendicular open (30×5 cm) and two closed arms (30×5 cm) with 15 cm high walls, extending from the central platform (5×5 cm). […] All experimental sessions were recorded with a video camera mounted vertically above the maze. The activity on the open arm was evaluated as: 1) time spent on the open arms relative to the total time spent in the plus-maze, expressed as a percentage (100× time spent on open arm/total time in the plus-maze); 2) the number of entries into both open and closed arms, expressed as a percentage (100× open/total entries). […]

The test system of data set [2] is ICR male mice. Description: locomoter activity test. Particulars: oral 0.2, 0.5 and 1.0 mg/kg; dose dependent. On the procedure:
All the animals used in the test are prepared in the similar method according to Experimental Example 1.
To determine and re-confirm the anti-anxiety activity of obovatol, following locomoter activity test was performed as follow in accordance with the procedure cited in the literature (Kulkarni S. K. et al., Methods and Findings in Experimental and Clinical Pharmacology, 18, pp. 219-230, 1996).
All the animals were transferred to test cage (diameter: 20 cm, height: 18 cm) one hour prior to the administration of test samples, acclimated the environment for 10 mins and the locomoter activity was determined automatically at every 1 hour.

In the next data set the test system is ICR mice. Description: acute toxicity test on ICR mice. Particulars: oral 10, 100 and 1000 mg/kg, observed for 2 weeks. As to the method:
(§1) The acute toxicity tests on ICR mice (mean body weight 25±5 g) and Sprague-Dawley rats (235±10 g, Biogenomics Co., Ltd.) were performed using the obovatol compound. Four groups consisting of 3 mice or rats was administrated orally with 10 mg/kg, 100 mg/kg and 1000 mg/kg of test sample or solvents (0.2 mL, […].) respectively and observed for 2 weeks.

The next data set has as its system Sprague-Dawley rats. In words: acute toxicity test on Sprague-Dawley rats. Particulars: oral 10, 100 and 1000 mg/kg, observed for 2 weeks. On the procedure: as §1

For the substance obovatol, in the data set with ICR male mice [1] (at the same doses of the drugs, elevated plus-maze, FIG. 3 and FIG. 4), the “anti-anxiety activity relative to diazepam” value is “more potent anti-anxiety activity than diazepam”. In the data set on ICR male mice [1] (oral 0.2, 0.5 and 1.0 mg/kg, 60 min prior (P<0.05, P<0.05 and P<0.005)), the “percentage of time spent in the open arms” value was “significant increases”. Further, in the data set with ICR male mice [1] (oral 0.2, 0.5 and 1.0 mg/kg, 60 min prior, dose dependent, compared with diazepam treated group (P<0.05, P<0.05 and P<0.005)), the “percentage of entries into open arms” value is listed as “significantly increased”. In addition, the locomoter activity entry in the data set on ICR male mice [2] is reported as “significantly decreased”. Further, the “treatment-related effects on mortality, clinical signs, body weight changes and gross findings” value in the data set with ICR mice and with Sprague-Dawley rats was “no treatment-related effects” each time.
